# Measurements as given in PMC5711809, “Bayesian Analysis of MicroScale Thermophoresis Data to Quantify Affinity of Protein:Protein Interactions with Human Survivin” (Scientific Reports, 2017).
# B1: hSgol1 array peptide KREEKRKANRRKSKR (peptide)
# peptide: KREEKRKANRRKSKR
# notes: human Shugoshin-like 1 (hSgol1), 15-mer of the overlapping peptide array; source: laser-printed on the PEPperCHIP peptide microarray (PEPperPRINT)
# B2: hSgol2 array peptide ECQVKKVNKMTSKSK (peptide)
# peptide: ECQVKKVNKMTSKSK
# notes: human Shugoshin-like 2 (hSgol2), 15-mer of the overlapping peptide array; source: laser-printed on the PEPperCHIP peptide microarray (PEPperPRINT)
# B3: hSgol1 array peptide RKANRRKSKRMSKYK (peptide)
# peptide: RKANRRKSKRMSKYK
# notes: as for B1
# B4: hSgol2 array peptide KVNKMTSKSKKRKTS (peptide)
# peptide: KVNKMTSKSKKRKTS
# notes: as for B2
# Target: T1, human survivin (Homo sapiens, UniProt O15392)
# T1 construct: His8 (pHIS8 vector); made in house; host or cells: E. coli BL21(DE3) star
# Experiment: PEPperCHIP peptide microarray, survivin binding to laser printed overlapping peptides
# Conditions: survivin 1, 10 and 100 μg/ml; secondary 6X His Tag Antibody DyLight680 antibody; fluorescence, LI-COR Odyssey; duplicate spots
# Description: We tested the Bayesian inference method on potential binding interactions of survivin identified by PEPperCHIP Peptide Microarray (PEPperPRINT, GmbH, Heidelberg, Germany). These microarrays consisted of overlapping peptides originating from candidate proteins from the human proteome including hSgol1, hSgol2 and the N-terminal region of borealin (1–93). The peptides were generated by peptide laser printing[25] (Fig. 2). […] The spots are consistently visible at 1, 10 and 100 μg/ml survivin concentrations in the assay buffer (Fig. 2). Quantitative analysis of the fluorescent intensities of the specific and control antibodies for borealin, hSgo1l and hSgol2 are shown in Supplementary Fig. S1, S2 and S3, respectively.
# Pre-staining of one of the PEPperCHIP® Peptide Microarrays was done with the secondary 6X His Tag Antibody DyLight680 antibody at a dilution of 1:1000 and with monoclonal anti-HA (12CA5)-DyLight800 control antibody at a dilution of 1:1000 to investigate background interactions with the protein-derived peptides that could interfere with the main assays. Subsequent incubation of other peptide microarray copies with survivin at concentrations of 1 µg/ml, 10 µg/ml and 100 µg/ml in incubation buffer was followed by staining with the secondary 6X His Tag Antibody DyLight680 (Rockland Immunochemicals) antibody and the monoclonal anti-HA (12CA5)-DyLight800 control antibody (Rockland Immunochemicals) as well as by read-out at scanning intensities of 7/7 (red/green). HA and His tag control peptides were simultaneously stained as internal quality control to confirm the assay quality and to facilitate grid alignment for data quantification. Read-out was performed with a LI-COR Odyssey Imaging System, while quantification of spot intensities and peptide annotation were done with PepSlide® Analyzer.
# T1 sequence (O15392 whole entry): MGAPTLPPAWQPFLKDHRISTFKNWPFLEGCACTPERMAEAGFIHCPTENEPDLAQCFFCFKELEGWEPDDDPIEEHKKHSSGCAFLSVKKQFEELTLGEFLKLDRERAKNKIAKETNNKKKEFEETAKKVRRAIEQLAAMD
row,Molecule,microarray response to survivin (spot signal)
1,"DTQERKREEKRKANR [adjacent hSgol1 peptide, laser printed on microarray]",to some extent
2,EVSKIVTVSTGIKKK [other basic peptide on the microarray],did not react with survivin in a similar manner
3,"RKANRRKSKRMSKYK [basic hSgol1 peptide, laser printed on microarray]",main responses with the clearest spot morphologies
4,SPTDPKACNWKKYKF [other basic peptide on the microarray],did not react with survivin in a similar manner
5,"KVNKMTSKSKKRKTS [hSgol2 peptide, laser printed on microarray]",main responses with the clearest spot morphologies
6,"ECQVKKVNKMTSKSK [hSgol2 peptide, laser printed on microarray]",main responses with the clearest spot morphologies
7,"KREEKRKANRRKSKR [basic hSgol1 peptide, laser printed on microarray]",main responses with the clearest spot morphologies
8,KTFRKVKDSSSEKKR [other basic peptide on the microarray],did not react with survivin in a similar manner
9,HQSSFLLSASKKKRI [other basic peptide on the microarray],did not react with survivin in a similar manner

# Target: T2, human survivin (human, UniProt O15392 1-142, GREEN-MALEIMIDE (cysteine reactive) fluorescent label, in the MST experiments only)
# T2 construct: survivin, human, 16 kDa; The His tag is detected on the array by a 6X His Tag antibody; for the MST no cleavage of the tag is told; On the array the protein was unlabelled, in the MST labelled on cysteine; source: E. coli BL21(DE3) star, purified (Ni2+ chelation chromatography, gel filtration)
# Experiment: peptide or protein array; PEPperCHIP microarray of overlapping printed peptides; incubated with survivin at 1, 10 and 100 µg/ml in incubation buffer; detected with 6X His Tag Antibody DyLight680
# Conditions: both partners purified
# T2 sequence (O15392 whole entry): as above
row,Molecule,binding result
1,B1,binds
2,B2,binds
3,B3,binds
4,B4,binds
